Measured values taken from US7429660B2, “ATM inhibitors” (Kudos Pharmaceuticals Limited, priority 2003, dated 2008).

The molecules below were run against T1, ATM protein immunoprecipitated from HeLa cell nuclear extract (Homo sapiens, UniProt Q13315) (assay: In vitro ATM inhibition assay (phosphorylation of GSTp53N66 on serine 15, chemiluminescent detection)). Conditions: read-out: IC50 values (the concentration at which 50% of the enzyme activity is inhibited), ATM inhibition.
T1 construct: ATM protein was immunoprecipitated from HeLa cell nuclear extract; endogenous in cells; host or cells: HeLa cell nuclear extract (immunoprecipitated with rabbit polyclonal anti-ATM antiserum)
Type: biochemical
Method in brief: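 Immunoprecipitated HeLa nuclear ATM (C-terminal anti-sera) with GSTp53N66 substrate in Hepes pH 7.4 buffer with MgCl2/MnCl2; inhibitor preincubated 10 min at 37 °C, then Na-ATP added, 1 h at 37 °C.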
Also: tested normally from 100 µM down to 0.1 nM.

T1 sequence (Q13315 whole entry): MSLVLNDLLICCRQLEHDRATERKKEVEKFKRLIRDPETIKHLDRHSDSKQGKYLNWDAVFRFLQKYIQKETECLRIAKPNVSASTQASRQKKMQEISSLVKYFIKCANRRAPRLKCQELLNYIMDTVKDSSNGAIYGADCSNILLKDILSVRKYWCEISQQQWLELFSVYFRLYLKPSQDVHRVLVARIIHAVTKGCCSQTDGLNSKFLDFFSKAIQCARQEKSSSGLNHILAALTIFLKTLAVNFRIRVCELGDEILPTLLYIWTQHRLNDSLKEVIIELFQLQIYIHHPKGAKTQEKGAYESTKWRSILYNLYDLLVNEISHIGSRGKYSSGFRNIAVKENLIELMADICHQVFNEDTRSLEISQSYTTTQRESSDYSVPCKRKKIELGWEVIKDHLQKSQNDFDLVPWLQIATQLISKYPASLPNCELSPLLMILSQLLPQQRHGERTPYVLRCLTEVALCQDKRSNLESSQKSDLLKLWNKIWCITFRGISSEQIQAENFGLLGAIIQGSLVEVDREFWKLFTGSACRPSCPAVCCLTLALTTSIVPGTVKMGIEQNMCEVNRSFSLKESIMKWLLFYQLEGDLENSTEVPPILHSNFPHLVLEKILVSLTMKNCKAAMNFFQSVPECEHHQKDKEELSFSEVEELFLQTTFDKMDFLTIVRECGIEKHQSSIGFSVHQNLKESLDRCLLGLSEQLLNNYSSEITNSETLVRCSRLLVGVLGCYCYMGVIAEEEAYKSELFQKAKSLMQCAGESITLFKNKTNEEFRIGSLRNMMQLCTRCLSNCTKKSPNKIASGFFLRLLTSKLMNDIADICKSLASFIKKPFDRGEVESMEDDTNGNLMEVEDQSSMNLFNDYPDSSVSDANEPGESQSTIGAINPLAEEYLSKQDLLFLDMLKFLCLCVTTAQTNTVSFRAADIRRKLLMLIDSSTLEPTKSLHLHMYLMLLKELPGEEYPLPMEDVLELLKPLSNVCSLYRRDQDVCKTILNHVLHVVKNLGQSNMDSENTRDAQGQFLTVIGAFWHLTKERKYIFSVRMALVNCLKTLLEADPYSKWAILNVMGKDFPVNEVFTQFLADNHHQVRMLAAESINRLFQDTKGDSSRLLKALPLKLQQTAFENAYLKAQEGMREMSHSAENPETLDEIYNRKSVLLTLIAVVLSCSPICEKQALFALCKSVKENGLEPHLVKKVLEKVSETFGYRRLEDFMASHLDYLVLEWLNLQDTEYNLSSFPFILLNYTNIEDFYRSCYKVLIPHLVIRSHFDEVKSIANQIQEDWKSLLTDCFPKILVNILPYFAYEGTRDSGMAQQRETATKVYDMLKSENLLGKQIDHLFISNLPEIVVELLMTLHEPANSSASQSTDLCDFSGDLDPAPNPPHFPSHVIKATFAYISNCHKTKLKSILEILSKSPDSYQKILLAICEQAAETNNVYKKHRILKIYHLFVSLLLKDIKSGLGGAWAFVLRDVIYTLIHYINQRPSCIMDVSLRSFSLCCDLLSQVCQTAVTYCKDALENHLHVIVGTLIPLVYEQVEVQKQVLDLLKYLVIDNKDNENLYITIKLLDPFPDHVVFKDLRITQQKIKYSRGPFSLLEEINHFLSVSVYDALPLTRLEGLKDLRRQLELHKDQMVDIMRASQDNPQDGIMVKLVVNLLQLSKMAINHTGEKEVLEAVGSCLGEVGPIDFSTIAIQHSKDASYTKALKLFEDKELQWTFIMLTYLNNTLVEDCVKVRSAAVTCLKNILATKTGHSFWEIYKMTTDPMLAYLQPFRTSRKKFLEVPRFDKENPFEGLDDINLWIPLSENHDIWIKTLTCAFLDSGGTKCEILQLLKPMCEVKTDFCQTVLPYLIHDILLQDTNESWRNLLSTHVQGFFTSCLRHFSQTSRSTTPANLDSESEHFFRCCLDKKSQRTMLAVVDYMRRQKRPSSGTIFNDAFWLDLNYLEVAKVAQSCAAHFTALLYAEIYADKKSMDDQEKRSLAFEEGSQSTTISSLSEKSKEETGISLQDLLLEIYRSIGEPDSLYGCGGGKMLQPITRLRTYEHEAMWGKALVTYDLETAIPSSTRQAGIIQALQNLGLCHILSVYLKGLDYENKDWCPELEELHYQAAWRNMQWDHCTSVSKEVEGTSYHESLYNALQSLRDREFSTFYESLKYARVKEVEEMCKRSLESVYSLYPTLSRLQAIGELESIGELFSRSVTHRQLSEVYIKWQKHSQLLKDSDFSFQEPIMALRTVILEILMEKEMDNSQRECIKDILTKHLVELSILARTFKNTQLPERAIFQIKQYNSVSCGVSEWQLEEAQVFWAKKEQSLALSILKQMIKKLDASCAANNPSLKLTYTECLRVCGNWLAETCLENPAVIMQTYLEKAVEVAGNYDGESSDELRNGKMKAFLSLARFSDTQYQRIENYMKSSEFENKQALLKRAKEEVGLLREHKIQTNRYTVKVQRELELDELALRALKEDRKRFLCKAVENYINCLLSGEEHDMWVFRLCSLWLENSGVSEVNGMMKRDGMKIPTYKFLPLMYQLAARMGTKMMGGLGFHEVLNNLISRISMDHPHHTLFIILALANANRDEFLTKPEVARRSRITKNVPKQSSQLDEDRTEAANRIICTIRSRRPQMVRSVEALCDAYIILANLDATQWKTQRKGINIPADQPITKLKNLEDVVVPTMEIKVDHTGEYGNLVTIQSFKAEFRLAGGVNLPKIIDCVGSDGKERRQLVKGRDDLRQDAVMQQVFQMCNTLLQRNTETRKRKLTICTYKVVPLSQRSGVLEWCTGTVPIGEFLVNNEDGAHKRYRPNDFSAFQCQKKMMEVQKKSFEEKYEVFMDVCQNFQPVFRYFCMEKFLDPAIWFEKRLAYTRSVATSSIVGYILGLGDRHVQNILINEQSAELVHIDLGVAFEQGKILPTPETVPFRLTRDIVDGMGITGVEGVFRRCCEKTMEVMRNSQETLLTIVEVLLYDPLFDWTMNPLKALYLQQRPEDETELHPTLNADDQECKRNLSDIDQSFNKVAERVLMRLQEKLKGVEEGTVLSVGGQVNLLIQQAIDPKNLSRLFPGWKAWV

IC50 [nM] | Structure (SMILES)
< 200 | O=C(COc1ccc2c(c1)Sc1cccc(-c3cc(=O)cc(N4CCOCC4)o3)c1S2)N1CCCC(CO)C1 (stereo not drawn) [Compound 418]
< 200 | O=C(COc1ccc2c(c1)Sc1cccc(-c3cc(=O)cc(N4CCOCC4)o3)c1S2)N[C@@H](CO)C(=O)OCc1ccccc1 [Compound 424]
< 200 | CN(C)CCN(C)C(=O)COc1ccc2c(c1)Sc1cccc(-c3cc(=O)cc(N4CCOCC4)o3)c1S2 [Compound 434]
< 200 | O=C(COc1ccc2c(c1)Sc1cccc(-c3cc(=O)cc(N4CCOCC4)o3)c1S2)N1CCCCC1 [Compound 440]
< 200 | O=C(COc1ccc2c(c1)Sc1cccc(-c3cc(=O)cc(N4CCOCC4)o3)c1S2)NCCN1CCNC1=O [Compound 441]
< 200 | CN1CCN(C(=O)COc2ccc3c(c2)Sc2cccc(-c4cc(=O)cc(N5CCOCC5)o4)c2S3)CC1 [Compound 450]
< 200 | O=c1cc(-c2cccc3c2Sc2ccc(S(=O)(=O)NCC(F)(F)F)cc2C3)oc(N2CCOCC2)c1 [Compound 454]
< 200 | O=c1cc(-c2cccc3c2Sc2ccc(S(=O)(=O)NCC4CCCO4)cc2C3)oc(N2CCOCC2)c1 (stereo not drawn) [Compound 455]
< 200 | CCCCNS(=O)(=O)c1ccc2c(c1)Cc1cccc(-c3cc(=O)cc(N4CCOCC4)o3)c1S2 [Compound 457]
< 200 | O=c1cc(-c2cccc3c2Sc2ccc(S(=O)(=O)NCCc4cnc[nH]4)cc2C3)oc(N2CCOCC2)c1 [Compound 465]
< 200 | NC(=O)C1CCN(S(=O)(=O)c2ccc3c(c2)Cc2cccc(-c4cc(=O)cc(N5CCOCC5)o4)c2S3)CC1 [Compound 469]
< 200 | O=c1cc(-c2cccc3c2Sc2ccc(S(=O)(=O)NCCO)cc2C3)oc(N2CCOCC2)c1 [Compound 484]
< 200 | O=C(COc1ccc2c(c1)Cc1cccc(-c3cc(=O)cc(N4CCOCC4)o3)c1S2)N1CCOCC1 [Compound 494]
< 200 | O=C(COc1ccc2c(c1)Cc1cccc(-c3cc(=O)cc(N4CCOCC4)o3)c1S2)N1CCNCC1 [Compound 528]
< 200 | CCCNCCOc1ccc2c(c1)Cc1cccc(-c3cc(=O)cc(N4CCOCC4)o3)c1S2 [Compound 537]

Second part, the molecule before the results:

Structure (SMILES) | IC50 [nM]
O=C(COc1ccc2c(c1)Sc1cccc(-c3cc(=O)cc(N4CCOCC4)o3)c1S2)Nc1cccnc1 [Compound 419] | < 200
O=C(COc1ccc2c(c1)Sc1cccc(-c3cc(=O)cc(N4CCOCC4)o3)c1S2)N1CCN(c2ccccn2)CC1 [Compound 426] | < 200
C[C@@H]1CN(C(=O)COc2ccc3c(c2)Sc2cccc(-c4cc(=O)cc(N5CCOCC5)o4)c2S3)C[C@H](C)O1 [Compound 433] | < 200
COCCN1CCN(C(=O)COc2ccc3c(c2)Sc2cccc(-c4cc(=O)cc(N5CCOCC5)o4)c2S3)CC1 [Compound 435] | < 200
O=C(COc1ccc2c(c1)Sc1cccc(-c3cc(=O)cc(N4CCOCC4)o3)c1S2)N1CCN(CCO)CC1 [Compound 436] | < 200
CC(C)N1CCN(C(=O)COc2ccc3c(c2)Sc2cccc(-c4cc(=O)cc(N5CCOCC5)o4)c2S3)CC1 [Compound 437] | < 200
CCN1CCN(C(=O)COc2ccc3c(c2)Sc2cccc(-c4cc(=O)cc(N5CCOCC5)o4)c2S3)CC1 [Compound 438] | < 200
O=C(COc1ccc2c(c1)Sc1cccc(-c3cc(=O)cc(N4CCOCC4)o3)c1S2)NCc1ccncc1 [Compound 439] | < 200
CN1CCCN(C(=O)COc2ccc3c(c2)Sc2cccc(-c4cc(=O)cc(N5CCOCC5)o4)c2S3)CC1 [Compound 442] | < 200
O=C(COc1ccc2c(c1)Sc1cccc(-c3cc(=O)cc(N4CCOCC4)o3)c1S2)N(CCO)CCO [Compound 444] | < 200
COCCN(CCOC)C(=O)COc1ccc2c(c1)Sc1cccc(-c3cc(=O)cc(N4CCOCC4)o3)c1S2 [Compound 445] | < 200
O=C(COc1ccc2c(c1)Sc1cccc(-c3cc(=O)cc(N4CCOCC4)o3)c1S2)N1CCCCCC1 [Compound 446] | < 200
CCCNS(=O)(=O)c1ccc2c(c1)Cc1cccc(-c3cc(=O)cc(N4CCOCC4)o3)c1S2 [Compound 458] | < 200
C=CCNS(=O)(=O)c1ccc2c(c1)Cc1cccc(-c3cc(=O)cc(N4CCOCC4)o3)c1S2 [Compound 462] | < 200
O=c1cc(-c2cccc3c2Sc2ccc(S(=O)(=O)NC(CO)CO)cc2C3)oc(N2CCOCC2)c1 [Compound 466] | < 200
O=c1cc(-c2cccc3c2Sc2ccc(S(=O)(=O)N4CCCC4)cc2C3)oc(N2CCOCC2)c1 [Compound 468] | < 200
O=c1cc(-c2cccc3c2Sc2ccc(S(=O)(=O)N4CCCC(CO)C4)cc2C3)oc(N2CCOCC2)c1 (stereo not drawn) [Compound 471] | < 200
O=c1cc(-c2cccc3c2Sc2ccc(S(=O)(=O)Nc4cccnc4)cc2C3)oc(N2CCOCC2)c1 [Compound 472] | < 200

Structure (SMILES) | IC50 [nM]
CC(=O)N1CCN(S(=O)(=O)c2ccc3c(c2)Cc2cccc(-c4cc(=O)cc(N5CCOCC5)o4)c2S3)CC1 [Compound 476] | < 200
C[C@@H]1CN(S(=O)(=O)c2ccc3c(c2)Cc2cccc(-c4cc(=O)cc(N5CCOCC5)o4)c2S3)C[C@H](C)O1 [Compound 478] | < 200
CN1CCN(S(=O)(=O)c2ccc3c(c2)Cc2cccc(-c4cc(=O)cc(N5CCOCC5)o4)c2S3)CC1 [Compound 480] | < 200
CCN1CCN(S(=O)(=O)c2ccc3c(c2)Cc2cccc(-c4cc(=O)cc(N5CCOCC5)o4)c2S3)CC1 [Compound 482] | < 200
O=c1cc(-c2cccc3c2Sc2ccc(S(=O)(=O)N4CCCCC4)cc2C3)oc(N2CCOCC2)c1 [Compound 485] | < 200
CCC(C)(C)NS(=O)(=O)c1ccc2c(c1)Cc1cccc(-c3cc(=O)cc(N4CCOCC4)o3)c1S2 [Compound 488] | < 200
O=c1cc(-c2cccc3c2Sc2ccc(S(=O)(=O)N4CCCNCC4)cc2C3)oc(N2CCOCC2)c1 [Compound 489] | < 200
O=c1cc(-c2cccc3c2Sc2ccc(S(=O)(=O)N(CCO)CCO)cc2C3)oc(N2CCOCC2)c1 [Compound 490] | < 200
O=C(COc1ccc2c(c1)Cc1cccc(-c3cc(=O)cc(N4CCOCC4)o3)c1S2)NCC(F)(F)F [Compound 496] | < 200
O=C(COc1ccc2c(c1)Cc1cccc(-c3cc(=O)cc(N4CCOCC4)o3)c1S2)NCC1CCCO1 (stereo not drawn) [Compound 497] | < 200
O=C(COc1ccc2c(c1)Cc1cccc(-c3cc(=O)cc(N4CCOCC4)o3)c1S2)NC1CCC1 [Compound 499] | < 200
CSCCNC(=O)COc1ccc2c(c1)Cc1cccc(-c3cc(=O)cc(N4CCOCC4)o3)c1S2 [Compound 500] | < 200
O=C(COc1ccc2c(c1)Cc1cccc(-c3cc(=O)cc(N4CCOCC4)o3)c1S2)NC(CO)(CO)CO [Compound 505] | < 200
NC(=O)C1CCN(C(=O)COc2ccc3c(c2)Cc2cccc(-c4cc(=O)cc(N5CCOCC5)o4)c2S3)CC1 [Compound 509] | < 200
O=C(COc1ccc2c(c1)Cc1cccc(-c3cc(=O)cc(N4CCOCC4)o3)c1S2)N1CCSCC1 [Compound 510] | < 200
O=C(COc1ccc2c(c1)Cc1cccc(-c3cc(=O)cc(N4CCOCC4)o3)c1S2)NC[C@@H]1CCCCC[C@@H]1O [Compound 513] | < 200
CCN1CCN(C(=O)COc2ccc3c(c2)Cc2cccc(-c4cc(=O)cc(N5CCOCC5)o4)c2S3)CC1 [Compound 524] | < 200
O=C(COc1ccc2c(c1)Cc1cccc(-c3cc(=O)cc(N4CCOCC4)o3)c1S2)N1CCCCCC1 [Compound 532] | < 200
